Assay results as given in ChEMBL document CHEMBL3045184, “3D-QSAR studies of natural flavonoid compounds as reverse transcriptase inhibitors” (Med Chem Res, 2012).

Target: T1, Avian myoblastosis virus polyprotein II (Avian myeloblastosis virus) (UniProt Q86831)
T1 sequence (whole entry): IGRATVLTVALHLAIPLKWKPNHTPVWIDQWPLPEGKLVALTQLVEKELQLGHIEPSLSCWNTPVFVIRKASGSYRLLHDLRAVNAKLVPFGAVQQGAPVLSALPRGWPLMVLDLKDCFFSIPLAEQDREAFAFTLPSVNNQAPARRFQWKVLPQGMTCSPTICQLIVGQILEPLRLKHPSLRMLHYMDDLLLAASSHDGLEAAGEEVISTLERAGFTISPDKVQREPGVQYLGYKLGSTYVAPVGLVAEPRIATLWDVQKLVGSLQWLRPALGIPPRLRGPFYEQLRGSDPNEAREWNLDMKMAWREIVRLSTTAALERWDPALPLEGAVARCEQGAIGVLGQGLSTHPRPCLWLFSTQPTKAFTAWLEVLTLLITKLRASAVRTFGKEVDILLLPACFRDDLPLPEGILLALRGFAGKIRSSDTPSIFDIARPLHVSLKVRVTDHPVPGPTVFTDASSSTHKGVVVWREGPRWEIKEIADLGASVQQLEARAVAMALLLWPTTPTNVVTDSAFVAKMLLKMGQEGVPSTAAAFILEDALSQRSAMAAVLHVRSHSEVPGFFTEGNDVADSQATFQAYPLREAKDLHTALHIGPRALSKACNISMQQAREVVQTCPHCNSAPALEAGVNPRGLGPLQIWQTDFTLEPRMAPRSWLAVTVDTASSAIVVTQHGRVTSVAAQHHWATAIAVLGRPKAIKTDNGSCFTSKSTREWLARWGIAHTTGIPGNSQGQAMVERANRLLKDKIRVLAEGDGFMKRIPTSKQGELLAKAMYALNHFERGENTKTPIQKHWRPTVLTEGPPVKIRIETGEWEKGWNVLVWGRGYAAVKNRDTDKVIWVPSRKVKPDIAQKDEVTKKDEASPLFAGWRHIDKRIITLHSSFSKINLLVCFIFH
Experiment: Inhibition of Avian myeloblastosis virus reverse transcriptase
Parameters: concentration or dose not given beside the values
Settings: concentration not given here

COc1cc(O)c2c(=O)c(O)c(-c3ccc(O)c(O)c3)oc2c1
inhibition: 50.8%

COc1cccc(OC)c1-c1cc(=O)c2c(O)c(OC)c(OC)c(OC)c2o1
inhibition: 5.4%

COc1ccc(-c2cc(=O)c3c(O)cc(OC(C)C)c(OC)c3o2)cc1
inhibition: 12%

COc1c(OC(C)=O)cc2oc(-c3ccccc3)cc(=O)c2c1O
inhibition: 18.3%

COc1ccc(-c2cc(=O)c3c(O)cc(OC)cc3o2)cc1
inhibition: 54.8%

O=c1c(O)c(-c2ccc(O)c(O)c2)oc2c(O)c(O)cc(O)c12
inhibition: 85.1%

COc1cc(O)c2c(=O)cc(-c3ccccc3OC(C)=O)oc2c1OC
inhibition: 17%

COc1c(OC(C)C)cc(O)c2c(=O)cc(-c3ccc(O)cc3)oc12
inhibition: 15.4%

CC(=O)Oc1ccc(-c2cc(=O)c3c(OC(C)=O)cc(OC(C)=O)cc3o2)cc1
inhibition: 24.7%

COc1cc(O)c2c(=O)cc(-c3ccccc3)oc2c1OC
inhibition: 9.8%

O=c1cc(-c2ccccc2)oc2c(O)c(O)cc(O)c12
inhibition: 36.9%

COc1cc2oc(-c3ccccc3)cc(=O)c2c(OC)c1OC
inhibition: 29.8%

COc1cc2oc(-c3ccc(O)c(O)c3)cc(=O)c2c(O)c1O
inhibition: 91.4%

O=c1c(O)c(-c2ccc(O)cc2O)oc2cc(O)cc(O)c12
inhibition: 40.5%

COc1cc(O)c2c(=O)c(OC)c(-c3ccc(OC)c(OC)c3)oc2c1
inhibition: 9.2%

O=c1c(O)c(-c2ccccc2)oc2cc(O)cc(O)c12
inhibition: 42.1%

CC(C)Oc1ccc(-c2cc(=O)c3c(O)c(O)c(OC(C)C)cc3o2)cc1
inhibition: 18%

COc1c(O)cc2oc(-c3ccccc3)cc(=O)c2c1OC
inhibition: 32.7%

O=c1cc(-c2ccccc2)oc2cc(OCc3ccccc3)cc(O)c12
inhibition: 34.9%

O=c1c(O)c(-c2ccc(O)c(O)c2)oc2cc(O)c(O)c(O)c12
inhibition: 98.4%

COc1ccc(-c2cc(=O)c3c(OC)cc(OC)cc3o2)cc1
inhibition: 45.6%

O=c1cc(-c2ccccc2)oc2c(O)c(OCc3ccccc3)cc(O)c12
inhibition: 19%

O=c1c(O)c(-c2ccc(O)c(O)c2)oc2cc(O)cc(O)c12
inhibition: 41.4%

O=c1cc(-c2ccc(O)cc2)oc2cc(O)c(O)c(O)c12
inhibition: 99.4%

O=c1cc(-c2ccc(O)c(O)c2)oc2cc(O)c(O)c(O)c12
inhibition: 91.7%

O=c1c(O)c(-c2ccc(O)cc2)oc2cc(O)c(O)c(O)c12
inhibition: 97.2%

COc1cccc(O)c1-c1cc(=O)c2c(O)c(OC)c(OC)c(OC)c2o1
inhibition: 18%

O=c1c(O)c(-c2ccc(O)cc2)oc2cc(O)cc(O)c12
inhibition: 72.6%

CC(C)Oc1ccc(-c2cc(=O)c3c(O)cc(O)c(O)c3o2)cc1OC(C)C
inhibition: 17.6%

CC(=O)Oc1cc2oc(-c3ccccc3)cc(=O)c2c(OC(C)=O)c1OC(C)=O
inhibition: 71.4%

COc1cc(-c2oc3cc(O)ccc3c(=O)c2O)ccc1O
inhibition: 52.7%

CC(C)Oc1ccc(-c2cc(=O)c3c(O)cc(OC(C)C)cc3o2)cc1
inhibition: 23.6%

O=c1cc(-c2ccccc2O)oc2c(O)c(O)cc(O)c12
inhibition: 67.7%

COc1ccc(-c2oc3cc(O)cc(O)c3c(=O)c2O)cc1
inhibition: 64.6%

O=c1c(O)c(-c2c(O)cccc2O)oc2cc(O)cc(O)c12
inhibition: 21.3%

COc1ccc(-c2oc3cc(O)cc(O)c3c(=O)c2O)cc1O
inhibition: 59.7%

O=c1c(O)c(-c2cc(O)c(O)c(O)c2)oc2cc(O)ccc12
inhibition: 87.5%

O=c1cc(-c2ccc(O)c(O)c2)oc2c(O)c(O)cc(O)c12
inhibition: 31.3%

COc1c(O)cc(O)c2c(=O)cc(-c3ccccc3O)oc12
inhibition: 8.5%

COc1c(O)cc(O)c2c(=O)cc(-c3ccccc3)oc12
inhibition: 36.8%

O=c1c(O)c(-c2ccccc2O)oc2cc(O)cc(O)c12
inhibition: 28%

COc1ccc(-c2cc(=O)c3c(O)c(O)c(OC)c(O)c3o2)cc1
inhibition: 39.1%

O=c1c(O)c(-c2cc(O)c(O)c(O)c2)oc2cc(O)cc(O)c12
inhibition: 82.5%

COc1c(O)cc2oc(-c3ccc(O)cc3)cc(=O)c2c1O
inhibition: 23.3%

CC(C)Oc1ccc(-c2cc(=O)c3c(O)cc(O)cc3o2)cc1
inhibition: 55.4%

CC(C)Oc1ccc(-c2cc(=O)c3c(O)cc(O)cc3o2)cc1OC(C)C
inhibition: 12.2%

COc1cc2oc(-c3ccccc3)cc(=O)c2c(O)c1OC
inhibition: 45.9%

COc1cc(O)c2c(=O)c(O)c(-c3ccc(OC)c(O)c3)oc2c1
inhibition: 68.1%

COc1ccc(-c2cc(=O)c3c(O)cc(O)cc3o2)cc1
inhibition: 48%

COc1cc2oc(-c3ccc(O)cc3)cc(=O)c2c(O)c1OC
inhibition: 50.9%

O=c1cc(-c2ccc(O)cc2)oc2c(O)c(O)cc(O)c12
inhibition: 22%

CC(C)Oc1ccc(-c2cc(=O)c3c(O)c(O)c(OC(C)C)c(O)c3o2)cc1
inhibition: 46.2%

COc1ccc(-c2cc(=O)c3ccc(O)cc3o2)cc1
inhibition: 13.6%

CC(C)Oc1cc(OC(C)C)c2c(=O)cc(-c3ccccc3)oc2c1
inhibition: 24.2%

O=c1cc(-c2ccccc2)oc2cc(O)c(O)c(O)c12
inhibition: 95%
